We go through two compounds from the NIST ThermoML archive (doi:10.1016/j.jct.2007.01.012).

Structures are written as SMILES. Numbers after ± are expanded uncertainties.

The conditions of the data set: 101.33 kPa, Liquid.

Turning to `CCn1cc[n+](C)c1.COCCOCCOS(=O)(=O)[O-]` [1-ethyl-3-methylimidazolium 2-(2-methoxyethoxy) ethylsulfate], the mass density stood at 1236.5 ± 2.9 kg/m3 (298.15 K), 1232.6 ± 2.9 kg/m3 (303.15 K) and 1225.6 ± 2.8 kg/m3 (313.15 K).

Turning to `CO` [methanol], the mass density by setting is: (298.15 K) 786.7 ± 1.4 kg/m3; (303.15 K) 782 ± 1.4 kg/m3; (313.15 K) 772.7 ± 1.4 kg/m3.

Usually mass density stands for mass per unit of volume.
